Measurements from ChEMBL document CHEMBL5226315, “Strategies for Targeting Serine/Threonine Protein Phosphatases with Small Molecules in Cancer” (J Med Chem, 2021).
Starred links: 1 amine or outer side, 2 acyl side, 3 side chain; linkers in the order of their positions; H or OH if unused. Positions of bridges follow the written chain, without caps; N, C: chain ends. Non-standard residues stand in square brackets, D forms with d. Residues, ends and D or L forms follow the SMILES beside them. Adda = CO[C@@H](Cc1ccccc1)[C@@H](C)/C=C(C)/C=C/[C@H](N[*:1])[C@H](C)C(=O)[*:2]; dAsp(3S-Me) = C[C@H](C(=O)[*:3])[C@@H](N[*:1])C(=O)[*:2]; d(γGlu) = O=C(O)[C@@H](CCC(=O)[*:2])N[*:1]; NMeDha = C=C(NC)C(=O)O

Tests used:
NCI-H358 = test: Anticancer activity against human NCI-H358 cells; format: functional
[1] = Inhibition of PP7 (unknown origin); design: species or system Homo sapiens
[2] = target: T1, Serine/threonine-protein phosphatase 5 (Homo sapiens, UniProt P53041); test: Inhibition of PP5 (unknown origin)
T1 sequence (P53041 whole entry): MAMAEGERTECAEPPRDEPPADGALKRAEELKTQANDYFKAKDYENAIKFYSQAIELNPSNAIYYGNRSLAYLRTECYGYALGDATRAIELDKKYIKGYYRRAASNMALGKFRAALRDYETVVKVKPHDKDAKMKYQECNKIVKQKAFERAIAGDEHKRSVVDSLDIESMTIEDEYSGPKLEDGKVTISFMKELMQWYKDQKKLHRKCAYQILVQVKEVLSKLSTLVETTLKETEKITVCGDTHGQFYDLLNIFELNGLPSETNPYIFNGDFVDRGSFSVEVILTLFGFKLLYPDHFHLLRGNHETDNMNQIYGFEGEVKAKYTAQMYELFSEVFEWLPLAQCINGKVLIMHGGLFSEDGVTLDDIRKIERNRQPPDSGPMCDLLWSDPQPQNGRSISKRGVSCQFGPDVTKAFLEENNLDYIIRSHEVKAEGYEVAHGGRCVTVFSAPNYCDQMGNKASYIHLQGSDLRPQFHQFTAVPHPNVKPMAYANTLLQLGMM

[3] = Inhibition of rabbit skeletal muscle PP1 using [3H]-phosphohistone as substrate; design: species or system Oryctolagus cuniculus
[4] = Inhibition of rabbit skeletal muscle PP2A using [3H]-phosphohistone as substrate; design: species or system Oryctolagus cuniculus
[5] = target: T2, Serine/threonine-protein phosphatase 6 catalytic subunit (Homo sapiens, UniProt O00743); test: Inhibition of PP6 (unknown origin)
T2 sequence (O00743 whole entry): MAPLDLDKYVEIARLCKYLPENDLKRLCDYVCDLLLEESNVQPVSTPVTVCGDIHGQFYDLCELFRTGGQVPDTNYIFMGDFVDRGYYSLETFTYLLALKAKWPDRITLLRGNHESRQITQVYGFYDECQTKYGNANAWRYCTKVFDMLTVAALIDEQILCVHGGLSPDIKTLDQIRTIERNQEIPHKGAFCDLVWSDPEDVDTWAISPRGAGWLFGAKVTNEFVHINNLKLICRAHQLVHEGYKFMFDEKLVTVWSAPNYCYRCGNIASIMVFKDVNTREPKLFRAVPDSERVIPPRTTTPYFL

[6] = Inhibition of porcine testis PP4; design: species or system Sus scrofa
[7] = Inhibition of PP3 (unknown origin) using [3H]-phosphohistone as substrate by liquid scintillation counting analysis; design: species or system Homo sapiens
[8] = Inhibition of PP7 (unknown origin) using [3H]-phosphohistone as substrate by liquid scintillation counting analysis; design: species or system Homo sapiens
[9] = Inhibition of PP2A (unknown origin) using [3H]-phosphohistone as substrate by liquid scintillation counting analysis; design: species or system Homo sapiens
[10] = Inhibition of PP1 (unknown origin) using [3H]-phosphohistone as substrate by liquid scintillation counting analysis; design: species or system Homo sapiens
[11] = target: T1, Serine/threonine-protein phosphatase 5; test: Inhibition of PP5 (unknown origin) using [3H]-phosphohistone as substrate by liquid scintillation counting analysis
[12] = Inhibition of PP4 (unknown origin) using [3H]-phosphohistone as substrate by liquid scintillation counting analysis; design: species or system Homo sapiens
Homo sapiens = species: Homo sapiens; test: Activation of PP2A (unknown origin) at 1000 nM relative to control; conditions: filed as activator
[13] = target: T3, Serine/threonine-protein phosphatase 5 (Homo sapiens) (UniProt P53041); test: Activation of PP5 (unknown origin) assessed as fold increase in activity at > 100000 nM relative to control; conditions: filed as activator
T3 sequence (whole entry): T1 sequence (P53041 whole entry)

[14] = target: T3, Serine/threonine-protein phosphatase 5 (Homo sapiens); test: Inhibition of human full length PP5 expressed in Escherichia coli Rosetta gami2(DE3)pLysS at >1 x 10^6nM relative to control; conditions: dose > 1.0 10^6nM
[15] = target: T4, Serine/threonine-protein phosphatase 2A catalytic subunit alpha isoform (Homo sapiens, UniProt P67775); test: Inhibition of human PP2AC using [3H]-phosphohistone as substrate
[16] = Inhibition of PP1 (unknown origin); design: species or system Homo sapiens
[17] = target: T1, Serine/threonine-protein phosphatase 5; test: Activation of recombinant human PP5 (16 to 499 residues) Escherichia coli BL21 (DE3) using pNPP incubated for 60 mins
[18] = target: T1, Serine/threonine-protein phosphatase 5; test: Inhibition of human PP5 using [3H]-phosphohistone as substrate
[19] = target: T2, Serine/threonine-protein phosphatase 6 catalytic subunit; test: Inhibition of PP6 (unknown origin) using [3H]-phosphohistone as substrate by liquid scintillation counting analysis
[20] = Inhibition of PP3 (unknown origin); design: species or system Homo sapiens
[21] = target: T4, Serine/threonine-protein phosphatase 2A catalytic subunit alpha isoform; test: Inhibition of PP2A (unknown origin)
[22] = Inhibition of porcine PP4 using [33P]-labelled substrate; design: species or system Sus scrofa
[23] = Inhibition of PP3 activity in human Jurkat J77 cells assessed as dephosphorylation of substrate; format: cell-based
[24] = Inhibition of PP4 (unknown origin); design: species or system Homo sapiens

T4 sequence (P67775 whole entry, canonical isoform): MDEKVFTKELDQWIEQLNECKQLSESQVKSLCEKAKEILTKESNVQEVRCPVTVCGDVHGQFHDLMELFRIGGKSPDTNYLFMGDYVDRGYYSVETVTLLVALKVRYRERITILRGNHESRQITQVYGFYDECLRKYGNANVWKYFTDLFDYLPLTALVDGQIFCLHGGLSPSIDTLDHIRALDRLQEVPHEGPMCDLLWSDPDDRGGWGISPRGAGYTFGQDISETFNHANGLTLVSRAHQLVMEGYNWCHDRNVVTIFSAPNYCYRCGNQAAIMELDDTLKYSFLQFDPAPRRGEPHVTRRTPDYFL

For `O=S(=O)(N[C@@H]1CCC[C@H](N2c3ccccc3Oc3ccccc32)[C@H]1O)c1ccc(OC(F)(F)F)cc1`, the GI50 (NCI-H358) was 5 10^3nM.

With `C=C1[C@@H](O)[C@@H]2O[C@]3(CC[C@H](/C=C/[C@H](C)[C@@H]4CC(C)=C[C@@]5(OC(C[C@@](C)(O)C(=O)O)CC[C@H]5O)O4)O3)CC[C@H]2O[C@@H]1[C@@H](O)C[C@H](C)[C@H]1O[C@@]2(CCCCO2)CC[C@H]1C` (some centres undefined) the IC50 [1] was over 1000 nM, the IC50 [2] was 3.5 nM and the IC50 [3] was 0.23 nM. The IC50 [4] was 0.94 nM, the IC50 [5] was 1 nM and the IC50 [6] was 0.1 nM.

Work on `C/C=C1/C(=O)N[C@H](OC(=O)O)[C@H](C)C(=O)N[C@@H](CCCNC(=N)N)C(=O)N[C@@H](/C=C/C(C)=C/[C@H](C)[C@H](Cc2ccccc2)OC)[C@H](C)C(=O)N[C@H](OC(=O)O)CCC(=O)N1C` yielded an IC50 [7] of over 1000 nM, an IC50 [8] of over 1000 nM and an IC50 [9] of 0.04 nM. It also gave an IC50 [10] of 1.7 nM.

For `C=C/C(=C/C(=O)C[C@H](C)C[C@@H](C)CC[C@H](O)[C@H](C)C(=O)C[C@@H](O)[C@@H](C)[C@@H](C)OC(=O)C[C@@H](O)C1=C(C)C(=O)OC1=O)CC`, the IC50 [7] was 17500 nM, the IC50 [10] was 0.4 nM and the IC50 [11] was 11.9 nM. The IC50 [12] was 44.4 nM.

In the case of `CCCCCCCCc1ccc(CCC(N)(CO)CO)cc1`, the Activity (Homo sapiens) is reported as 175%.

Work on `COc1ccc(-c2nc(Cc3ccc(Cl)cc3)no2)cc1OC` yielded a fold change (FC) [13] of 4.

`Nc1ccc(-c2nc3ccc(-c4nc5ccc(N)cc5[nH]4)cc3[nH]2)cc1` showed an inhibition [14] of 40%.

`CN1CCN(C(=O)C2C(C(=O)O)C3CC[C@@H]2O3)CC1` (single isomer, unassigned) showed an IC50 [15] of 400 nM and an IC50 [16] of 2.4 nM.

With `CCCCC/C=C\C/C=C\C/C=C\C/C=C\CCCC(=O)O` [ARACHIDONIC ACID] the EC50 [17] was 78000 nM.

With `COC[C@@H]([C@H](O)[C@H](O)C(=O)NCC[C@H](C)c1nc(/C=C/C[C@@H]2O[C@]3(C[C@@H](O)[C@@H]2C)O[C@H]([C@H](C[C@H](O)[C@H](C)[C@H](O)[C@H](C)/C=C(C)/C(C)=C/C=C/C(C)=C\C#N)OC)[C@H](OP(=O)(O)O)C3(C)C)co1)N(C)C` [CALYCULIN A] the IC50 [15] was 0.25 nM, the IC50 [7] was over 1000 nM and the IC50 [18] was 3 nM. The IC50 [9] was 1.5 nM, the IC50 [19] was 10 nM and the IC50 [12] was 0.2 nM.

In the case of `C[C@@]12C(=O)OC(=O)[C@]1(C)[C@H]1CC[C@@H]2O1` [CANTHARIDIN], the IC50 [18] is reported as 400 nM, the IC50 [2] is reported as 600 nM and the IC50 [16] is reported as 1700 nM. The IC50 [20] was over 500000 nM, the IC50 [21] was 160 nM and the IC50 [5] was 8000 nM. For the same compound, the IC50 [22] was 50 nM.

For `O=C(O)CCCCCCCCCCCC[C@@H]1C=CCC1` [CHAULMOOGRIC ACID], the EC50 [17] was 130000 nM.

In the case of `C[C@@](O)(/C=C/[C@H]1CC=CC(=O)O1)[C@@H](C[C@@H](O)\C=C/C=C\C=C\CO)OP(=O)(O)O` [FOSTRIECIN], the IC50 [7] is reported as over 100000 nM, the IC50 [11] is reported as over 10000 nM and the IC50 [12] is reported as 3 nM.

With `C=C1C(=O)N[C@H](C)C(=O)N[C@@H](CC(C)C)C(=O)N[C@@H](C(=O)O)[C@H](C)C(=O)N[C@@H](CCCNC(=N)N)C(=O)N[C@@H](/C=C/C(C)=C/[C@H](C)[C@H](Cc2ccccc2)OC)[C@H](C)C(=O)N[C@@H](C(=O)O)CCC(=O)N1C` [MICROCYSTIN-LR] (R[Adda][d(γGlu)][NMeDha][dA]L[dAsp(3S-Me)]-OH; lactam N-7) the IC50 [2] was 1 nM, the IC50 [3] was 10 nM and the IC50 [20] was 200 nM. The IC50 [4] was 0.1 nM and the IC50 [6] was 0.15 nM.

`C=CC[C@@H]1/C=C(\C)C[C@H](C)C[C@H](OC)[C@H]2O[C@@](O)(C(=O)C(=O)N3CCCC[C@H]3C(=O)O[C@H](/C(C)=C/[C@@H]3CC[C@@H](O)[C@H](OC)C3)[C@H](C)[C@@H](O)CC1=O)[C@H](C)C[C@@H]2OC` [TACROLIMUS ANHYDROUS] showed an IC50 [23] of 0.4 nM.

`CO[C@H]([C@H](O)CC(=O)[C@@H](C)[C@@H](O)CC[C@@H](C)[C@@H]1O[C@]2(CC[C@@H](C)[C@H](CC[C@H](C)C(C)=O)O2)CC[C@@H]1C)[C@H](OC(=O)C[C@@H](O)C1=C(C)C(=O)OC1=O)C(C)C` [TAUTOMYCIN] gave an IC50 [2] of 10 nM, an IC50 [3] of 0.038 nM and an IC50 [20] of over 1000 nM. For the same compound, the IC50 [9] was 5.3 nM and the IC50 [24] was 0.4 nM.
